We go through three molecules from US11000033B2, “Ketone or oxime compound, and herbicide” (NISSAN CHEMICAL CORPORATION, priority 2014, dated 2021).

Holding throughout (format): in vivo
The test system of one series is beet. In words: Test Example 5: effect on crop by foliage application, plastic box (symbol f). The conditions noted are these: 320 g/ha, 3 weeks after application. The method in brief:
(§1)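 Greenhouse test at 25° C. to 30° C. Seeds of crops and weeds were spot-sown in boxes of sterilized diluvial soil under roughly 1.5 cm soil cover, then grown for foliage treatment.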

Series [1] has as its system Digitaria ciliaris. As to the kind of experiment: Test Example 4: herbicidal effect by soil treatment (symbol F). Particulars: 320 g/ha. The method in brief:
(§2)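 Seeds were sown in sterilized diluvial soil, covered with about 1.5 cm of soil, and the soil surface was sprayed with a water-diluted emulsion of the compound at a predetermined rate. Plants grew in a greenhouse at 25° C. to 30° C.; effects were scored visually 3 weeks after application.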

Series [2] deals with Echinochloa crus-galli var. crus-galli. As to the kind of experiment: Test Example 3: herbicidal effect by foliage application, Wagner pot (symbol H). Particulars: application herbicide amount 320 g/ha. The method in brief: (§3)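 Foliar spray of a water-diluted emulsion at a predetermined herbicide amount, applied to 14-day-old plants. Seedlings were raised in flooded alluvial soil (0.1–0.5 cm water) at 25–30 °C in a greenhouse. Injury was rated after 3 weeks against fixed criteria.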

The subject of a further series is rice plant. In words: Test Example 5: effect on crop by foliage application, plastic box (symbol b). The conditions noted are these: 320 g/ha, 3 weeks after application. The method in brief:
as §1

The next series deals with Stellaria media. In words: Test Example 5: herbicidal effect by foliage application, plastic box (symbol P). Particulars: 320 g/ha, 3 weeks after application. The method in brief: (§4)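 After sowing into sterilized diluvial soil and growing two weeks under glass at 25° C. to 30° C., seedlings receive a uniform foliar spray of diluted emulsion. Damage is judged visually three weeks on.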

In series [3] the test system is Amaranthus retroflexus. As to the kind of experiment: Test Example 4: herbicidal effect by soil treatment (symbol N). The conditions noted are these: 320 g/ha. The method in brief: as §2
Series [4] has as its system Echinochloa oryzacola Vasing. In words: Test Example 2: herbicidal activity, application during weed generation in submerged conditions (symbol A). The conditions noted are these: Table 23; application herbicide amount 320 g/ha; grade 0-5 by criteria of Test Example 1. The method in brief: (§5)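 Scoring of herbicidal effect took place 3 weeks after treatment, using the criteria of the earlier test. Treatment was water-surface application of diluted emulsifiable compound at a set dose. Plants were at one- to two-leaf stage in submerged alluvial soil (4 cm depth), greenhouse 25-30° C.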

Series [5] deals with Digitaria ciliaris. In words: Test Example 5: herbicidal effect by foliage application, plastic box (symbol F). The conditions noted are these: 320 g/ha, 3 weeks after application. The method in brief:
as §4

The next series deals with Veronica persica. In words: Test Example 5: herbicidal effect by foliage application, plastic box (symbol R). Particulars: 320 g/ha, 3 weeks after application. The method in brief:
as §4

The test system of series [6] is Amaranthus retroflexus. As to the kind of experiment: Test Example 5: herbicidal effect by foliage application, plastic box (symbol N). Particulars: 320 g/ha, 3 weeks after application. Put shortly:
as §4

Another series has as its system wheat. As to the kind of experiment: Test Example 5: effect on crop by foliage application, plastic box (symbol e). Particulars: 320 g/ha, 3 weeks after application. Put shortly: as §1
Another series relates to Leptochloa chinensis. In words: Test Example 3: herbicidal effect by foliage application, Wagner pot (symbol D). The conditions noted are these: application herbicide amount 320 g/ha. The method in brief: as §3
The next series has as its system rapeseed. In words: Test Example 4: effect on crop by soil treatment (symbol g). The conditions noted are these: 320 g/ha. Put shortly: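 The test used sterilized diluvial soil. Seed was set down in spots and overlaid with about 1.5 cm of soil before growth in a greenhouse kept at 25° C. to 30° C.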
The next series concerns Scirpus juncoides. In words: Test Example 2: herbicidal activity, application during weed generation in submerged conditions (symbol B). The conditions noted are these: Table 23; application herbicide amount 320 g/ha; grade 0-5 by criteria of Test Example 1. The method in brief:
as §5

In another series the test system is Abutilon theophrasti. As to the kind of experiment: Test Example 4: herbicidal effect by soil treatment (symbol M). The conditions noted are these: 320 g/ha. The method in brief: as §2
Series [7] relates to Echinochloa crus-galli var. crus-galli. In words: Test Example 4: herbicidal effect by soil treatment (symbol H). The conditions noted are these: 320 g/ha. The method in brief:
as §2

For the next series, the system named is Lolium multiflorum Lam. As to the kind of experiment: Test Example 4: herbicidal effect by soil treatment (symbol K). Particulars: 320 g/ha. Put shortly: as §2
For another series, the system named is Avena fatua. In words: Test Example 5: herbicidal effect by foliage application, plastic box (symbol I). The conditions noted are these: 320 g/ha, 3 weeks after application. The method in brief:
as §4

The subject of the next series is Chenopodium album. In words: Test Example 5: herbicidal effect by foliage application, plastic box (symbol O). The conditions noted are these: 320 g/ha, 3 weeks after application. The method in brief: as §4

Consider `CON=C(C)CC1CC(OS(=O)(=O)CC[Si](C)(C)C)=C(c2c(C)cc(C)cc2C)C1=O` (stereo not drawn) [1-144], for which the “f: beet, effect on crop (criteria 0-5)” value in the series with beet was 2 (Herbicidal ratio of 20% or higher and lower than 40%). Also, the “F: Digitaria ciliaris, herbicidal effect grade” value with Digitaria ciliaris [1] is recorded as 5 (Herbicidal ratio of 90% or more (almost completely withered)). Moreover, the “herbicidal effect on H (Echinochloa crus-galli var. crus-galli), grade 0-5” value (shortened to “herbicidal effect on H”) in [2] was 5 (Herbicidal ratio of 90% or more (almost completely withered)). Further, the “b: directly sowed rice plant, effect on crop (criteria 0-5)” value (“b: directly sowed rice plant, effect” below) in the series on rice plant is recorded as 5 (Herbicidal ratio of 90% or more (almost completely withered)). The “P: Stellaria media, herbicidal effect (criteria 0-5)” value (from here on “P: Stellaria media”) in the series with Stellaria media was 2 (Herbicidal ratio of 20% or higher and lower than 40%). In addition, the “N: Amaranthus retroflexus, herbicidal effect grade” value in the series with Amaranthus retroflexus [3] is on record as 0 (Herbicidal ratio of 5% or lower (almost no effect)). In addition, the “Herbicidal effect grade, A: Echinochloa oryzacola Vasing.” value in series [4] is 5 (Herbicidal ratio of 90% or more (almost completely withered)). Further, the “F: Digitaria ciliaris, herbicidal effect (criteria 0-5)” value (shortened to “F: Digitaria ciliaris … (criteria 0-5)”) in the series with Digitaria ciliaris [5] is recorded as 5 (Herbicidal ratio of 90% or more (almost completely withered)). Also, in the series with Veronica persica, the “R: Veronica persica, herbicidal effect (criteria 0-5)” value (from here on “R: Veronica persica”) was 3 (Herbicidal ratio of 40% or higher and lower than 70%). Further, the “N: Amaranthus retroflexus, herbicidal effect (criteria 0-5)” value in the series on Amaranthus retroflexus [6] is 1 (Herbicidal ratio of 5% or higher and lower than 20%). Also, in the series on wheat, the “e: wheat, effect on crop (criteria 0-5)” value is 4 (Herbicidal ratio of 70% or higher and lower than 90%). In addition, the “herbicidal effect on D (Leptochloa chinensis), grade 0-5” value (“herbicidal effect on D” below) in the series on Leptochloa chinensis is recorded as 5 (Herbicidal ratio of 90% or more (almost completely withered)). Also, in the series on rapeseed, the “g: rapeseed, effect grade on crop” value is 2 (Herbicidal ratio of 20% or higher and lower than 40%). Besides, in the series on Scirpus juncoides, the “Herbicidal effect grade, B: Scirpus juncoides” value (from here on “Herbicidal effect grade, B”) was 4 (Herbicidal ratio of 70% or higher and lower than 90%). The “M: Abutilon theophrasti, herbicidal effect grade” value (“M: Abutilon theophrasti” for short) with Abutilon theophrasti is reported as 0 (Herbicidal ratio of 5% or lower (almost no effect)). Moreover, the “H: Echinochloa crus-galli var. crus-galli, herbicidal effect grade” value in [7] is given as 5 (Herbicidal ratio of 90% or more (almost completely withered)). Also, the “K: Lolium multiflorum Lam., herbicidal effect grade” value with Lolium multiflorum Lam. is 4 (Herbicidal ratio of 70% or higher and lower than 90%). The “I: Avena fatua, herbicidal effect (criteria 0-5)” value (from here on “I: Avena fatua, herbicidal effect”) in the series on Avena fatua is recorded as 5 (Herbicidal ratio of 90% or more (almost completely withered)). In the series on Chenopodium album, the “O: Chenopodium album, herbicidal effect (criteria 0-5)” value (“O: Chenopodium album” below) is recorded as 0 (Herbicidal ratio of 5% or lower (almost no effect)).

As to `CON=C(C)CC1CC(OC(=O)N2CCCCC2)=C(c2c(C)cc(C)cc2C)C1=O` (stereo not drawn) [1-151], the “f: beet, effect on crop (criteria 0-5)” value with beet is 2 (Herbicidal ratio of 20% or higher and lower than 40%). The “F: Digitaria ciliaris, herbicidal effect grade” value in the series on Digitaria ciliaris [1] is listed as 5 (Herbicidal ratio of 90% or more (almost completely withered)). Also, in series [2], the “herbicidal effect on H” value is 4 (Herbicidal ratio of 70% or higher and lower than 90%). For the same molecule, the “b: directly sowed rice plant, effect” value in the series with rice plant was 4 (Herbicidal ratio of 70% or higher and lower than 90%). Also, the “P: Stellaria media” value with Stellaria media was 0 (Herbicidal ratio of 5% or lower (almost no effect)). The “N: Amaranthus retroflexus, herbicidal effect grade” value in the series with Amaranthus retroflexus [3] is 0 (Herbicidal ratio of 5% or lower (almost no effect)). For the same molecule, the “Herbicidal effect grade, A: Echinochloa oryzacola Vasing.” value in [4] is 5 (Herbicidal ratio of 90% or more (almost completely withered)). Besides, in the series on Digitaria ciliaris [5], the “F: Digitaria ciliaris … (criteria 0-5)” value is listed as 5 (Herbicidal ratio of 90% or more (almost completely withered)). Further, the “R: Veronica persica” value in the series with Veronica persica was 1 (Herbicidal ratio of 5% or higher and lower than 20%). Also, the “N: Amaranthus retroflexus, herbicidal effect (criteria 0-5)” value with Amaranthus retroflexus [6] is reported as 0 (Herbicidal ratio of 5% or lower (almost no effect)). For the same molecule, in the series with wheat, the “e: wheat, effect on crop (criteria 0-5)” value was 3 (Herbicidal ratio of 40% or higher and lower than 70%). In the series on Leptochloa chinensis, the “herbicidal effect on D” value was 4 (Herbicidal ratio of 70% or higher and lower than 90%). Also, the “g: rapeseed, effect grade on crop” value with rapeseed is reported as 0 (Herbicidal ratio of 5% or lower (almost no effect)). Further, the “Herbicidal effect grade, B” value with Scirpus juncoides was 1 (Herbicidal ratio of 5% or higher and lower than 20%). Moreover, the “M: Abutilon theophrasti” value in the series on Abutilon theophrasti is recorded as 0 (Herbicidal ratio of 5% or lower (almost no effect)). In addition, the “H: Echinochloa crus-galli var. crus-galli, herbicidal effect grade” value in [7] is listed as 0 (Herbicidal ratio of 5% or lower (almost no effect)). Moreover, the “K: Lolium multiflorum Lam., herbicidal effect grade” value in the series with Lolium multiflorum Lam. is on record as 5 (Herbicidal ratio of 90% or more (almost completely withered)). For the same molecule, the “I: Avena fatua, herbicidal effect” value with Avena fatua is on record as 5 (Herbicidal ratio of 90% or more (almost completely withered)). Moreover, the “O: Chenopodium album” value in the series with Chenopodium album was 0 (Herbicidal ratio of 5% or lower (almost no effect)).

Regarding `CON=C(C)CC1CC(OC(=O)N2CCN(C)CC2)=C(c2c(C)cc(C)cc2C)C1=O` (stereo not drawn) [1-152], the “f: beet, effect on crop (criteria 0-5)” value with beet is 0 (Herbicidal ratio of 5% or lower (almost no effect)). For the same molecule, in the series with Digitaria ciliaris [1], the “F: Digitaria ciliaris, herbicidal effect grade” value is 0 (Herbicidal ratio of 5% or lower (almost no effect)). Further, the “herbicidal effect on H” value in series [2] was 5 (Herbicidal ratio of 90% or more (almost completely withered)). Moreover, in the series with rice plant, the “b: directly sowed rice plant, effect” value was 5 (Herbicidal ratio of 90% or more (almost completely withered)). The “P: Stellaria media” value with Stellaria media is reported as 0 (Herbicidal ratio of 5% or lower (almost no effect)). Moreover, in the series with Amaranthus retroflexus [3], the “N: Amaranthus retroflexus, herbicidal effect grade” value was 0 (Herbicidal ratio of 5% or lower (almost no effect)). Further, the “Herbicidal effect grade, A: Echinochloa oryzacola Vasing.” value in series [4] was 2 (Herbicidal ratio of 20% or higher and lower than 40%). Besides, the “F: Digitaria ciliaris … (criteria 0-5)” value in the series on Digitaria ciliaris [5] is reported as 5 (Herbicidal ratio of 90% or more (almost completely withered)). Further, in the series on Veronica persica, the “R: Veronica persica” value is recorded as 0 (Herbicidal ratio of 5% or lower (almost no effect)). For the same molecule, in the series on Amaranthus retroflexus [6], the “N: Amaranthus retroflexus, herbicidal effect (criteria 0-5)” value is 3 (Herbicidal ratio of 40% or higher and lower than 70%). The “e: wheat, effect on crop (criteria 0-5)” value with wheat is 3 (Herbicidal ratio of 40% or higher and lower than 70%). The “herbicidal effect on D” value in the series on Leptochloa chinensis is on record as 5 (Herbicidal ratio of 90% or more (almost completely withered)). Further, the “g: rapeseed, effect grade on crop” value in the series on rapeseed is 0 (Herbicidal ratio of 5% or lower (almost no effect)). Also, the “Herbicidal effect grade, B” value in the series with Scirpus juncoides was 0 (Herbicidal ratio of 5% or lower (almost no effect)). Also, the “M: Abutilon theophrasti” value in the series with Abutilon theophrasti is 0 (Herbicidal ratio of 5% or lower (almost no effect)). The “H: Echinochloa crus-galli var. crus-galli, herbicidal effect grade” value in series [7] is listed as 0 (Herbicidal ratio of 5% or lower (almost no effect)). Also, in the series on Lolium multiflorum Lam., the “K: Lolium multiflorum Lam., herbicidal effect grade” value was 2 (Herbicidal ratio of 20% or higher and lower than 40%). For the same molecule, the “I: Avena fatua, herbicidal effect” value in the series with Avena fatua was 4 (Herbicidal ratio of 70% or higher and lower than 90%). Also, the “O: Chenopodium album” value with Chenopodium album was 0 (Herbicidal ratio of 5% or lower (almost no effect)).
